According to the supplement of paper PMC10307832:

How the values were obtained:
Experiment in all cases: relative viability (nuclei count vs DMSO), 5 days (fraction); higher = more cells survive
[1] = compound: CN1CCN(CC1)C2=CC(=C(C=C2)NC3=NC=C4C(=N3)N(C5=CC=CC=C5C(=O)N4C)C)OC [XMD8-85] + Cc1cc(Nc2cc(N3CCN(C)CC3)nc(Sc3ccc(NC(=O)C4CC4)cc3)n2)n[nH]1 [Tozasertib] (partner 0.1 µM)
How it was run: (§1)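 Lung cancer cell lines in 1536-well plates were dosed by pin tool the day after seeding, either with one drug alone or with a fixed anchor-drug dose plus five library-drug doses (not always all listed) in √10 steps. After 5 days, cells were fixed and their nuclei stained in one step (final 0.05% Triton X-100, 1% formaldehyde, 1 ug/ml Hoechst), then counted on 4× images. Relative viability is the nuclei count in treated wells divided by that in vehicle wells. Values are medians of duplicate plates.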

[2] = compound: O=C(O)C(Cc1ccccc1[N+](=O)[O-])=NNc1nc(-c2ccc(Cl)c(Cl)c2)cs1 (mixture of isomers) [4EGI-1] + CC1(C)CCC(c2ccc(Cl)cc2)=C(CN2CCN(c3ccc(C(=O)NS(=O)(=O)c4ccc(N[C@H](CCN5CCOCC5)CSc5ccccc5)c(S(=O)(=O)C(F)(F)F)c4)cc3)CC2)C1 [Navitoclax] (partner 0.5 µM)
How it was run: as §1

[3] = compound: O=C(O)C(Cc1ccccc1[N+](=O)[O-])=NNc1nc(-c2ccc(Cl)c(Cl)c2)cs1 (mixture of isomers) [4EGI-1] + C[C@@H](Oc1cc(-c2cnn(C3CCNCC3)c2)cnc1N)c1c(Cl)ccc(F)c1Cl [Crizotinib] (partner 1 µM)
How it was run: as §1

[4] = compound: O=C(O)C(Cc1ccccc1[N+](=O)[O-])=NNc1nc(-c2ccc(Cl)c(Cl)c2)cs1 (mixture of isomers) [4EGI-1] + Nc1nc2[nH]cc(CCc3ccc(C(=O)N[C@@H](CCC(=O)O)C(=O)O)cc3)c2c(=O)[nH]1 [Pemetrexed] (partner 0.2 µM)
How it was run: as §1

| Cell Line | relative viability ([1]; first compound 0.08 µM) | relative viability ([1]; first compound 0.253 µM) | relative viability ([1]; first compound 0.8 µM) | relative viability ([1]; first compound 2.53 µM) | relative viability ([1]; first compound 8 µM) | relative viability ([2]; first compound 0.5 µM) | relative viability ([2]; first compound 1.581 µM) | relative viability ([2]; first compound 5 µM) | relative viability ([2]; first compound 15.81 µM) | relative viability ([2]; first compound 50 µM) | relative viability ([3]; first compound 0.5 µM) | relative viability ([3]; first compound 1.581 µM) | relative viability ([3]; first compound 5 µM) | relative viability ([3]; first compound 15.81 µM) | relative viability ([3]; first compound 50 µM) | relative viability ([4]; first compound 0.5 µM) | relative viability ([4]; first compound 1.581 µM) | relative viability ([4]; first compound 5 µM) | relative viability ([4]; first compound 15.81 µM) | relative viability ([4]; first compound 50 µM) |
| --- | --- | --- | --- | --- | --- | --- | --- | --- | --- | --- | --- | --- | --- | --- | --- | --- | --- | --- | --- | --- |
| NCI-H1915 | 0.434 | 0.404 | 0.494 | 0.389 | 0.296 | 0.825 | 0.606 | 0.797 | 0.754 | 0.596 | 0.924 | 0.62 | 0.847 | 0.907 | 0.477 | 0.513 | 0.407 | 0.451 | 0.488 | 0.263 |
| LXF-289 | 0.194 | 0.216 | 0.171 | 0.142 | 0.166 | 1.01 | 0.933 | 0.983 | 0.915 | 0.784 | 0.889 | 0.803 | 0.817 | 0.672 | 0.332 | 0.874 | 0.909 | 0.941 | 0.804 | 0.605 |
| LK-2 | – | 0.156 | 0.188 | 0.158 | 0.181 | 1.18 | – | 1.16 | 1.14 | 0.877 | 0.244 | – | 0.253 | 0.256 | 0.216 | 0.303 | – | 0.336 | 0.289 | 0.179 |
| H3255 | 0.599 | 0.646 | 0.651 | 0.25 | 0.469 | 0.587 | 0.477 | 0.557 | 0.137 | 0.368 | 1.14 | 0.573 | 0.856 | 0.612 | 0.541 | 0.598 | 0.574 | 0.524 | 0.453 | 0.395 |
| NCI-H2087 | 0.265 | 0.223 | 0.238 | 0.245 | 0.177 | 1.08 | 0.883 | 0.999 | 0.647 | 0.218 | 0.896 | 0.754 | 0.811 | 0.643 | 0.478 | 0.651 | 0.648 | 0.637 | 0.637 | 0.481 |
| EMC-BAC-2 | 0.293 | 0.275 | 0.285 | 0.239 | 0.224 | 1.16 | 1.2 | 1.05 | 1.08 | 1.09 | 0.776 | 0.594 | 0.706 | 0.627 | 0.306 | 0.418 | – | 0.466 | 0.482 | 0.323 |
| NCI-H2126 | 0.831 | 0.843 | 0.901 | 0.735 | 0.533 | 0.892 | 0.793 | 0.858 | 0.709 | 0.806 | 1.03 | 1.05 | 1.03 | 1.03 | 0.777 | 0.793 | 0.712 | 0.681 | 0.596 | 0.537 |
| NCI-H441 | 0.758 | 0.601 | 0.657 | 0.768 | 0.408 | 0.467 | 0.552 | 0.449 | 0.511 | 0.203 | 0.968 | 0.472 | 0.72 | 0.461 | 0.213 | 0.257 | 0.249 | 0.276 | 0.229 | 0.184 |
| HCC-366 | 0.138 | 0.128 | 0.0974 | 0.0608 | 0.0744 | 1.18 | 0.954 | 1.14 | 1.15 | 1.01 | 0.641 | 0.277 | 0.605 | 0.506 | 0.529 | 0.154 | 0.18 | 0.184 | 0.147 | 0.111 |
| NCI-H520 | 0.388 | 0.414 | 0.44 | 0.406 | 0.341 | 1.23 | 1.11 | 1.14 | 1.02 | 0.431 | 0.963 | 0.868 | 1.02 | 0.642 | 0.648 | 0.674 | 0.704 | 0.677 | 0.655 | 0.123 |
| HCC-44 | 0.802 | 0.898 | 1.15 | 0.51 | 0.356 | 0.957 | 0.596 | 0.949 | 0.958 | 0.35 | 0.841 | 0.6 | 0.8 | 0.656 | 0.186 | 0.609 | 0.634 | 0.549 | 0.584 | 0.593 |
| BEN | 0.467 | – | 0.426 | 0.331 | 0.457 | 0.0672 | 0.0661 | 0.0652 | 0.0675 | 0.0686 | 1.07 | 1.1 | 0.885 | 0.821 | 0.796 | 0.814 | 0.785 | 0.772 | 0.622 | 0.432 |
| HARA | 0.103 | 0.42 | 0.104 | 0.101 | 0.0877 | 1.15 | 1.1 | 1.12 | 1.15 | 0.672 | 1.06 | 1.07 | 1.03 | 0.906 | 0.212 | 0.266 | 0.273 | 0.333 | 0.238 | 0.223 |
| NCI-H2085 | 0.745 | 0.913 | 0.791 | 0.644 | 0.502 | 1.19 | 1.01 | 1.2 | 0.931 | 0.743 | 0.916 | 0.901 | 0.86 | 0.784 | 0.578 | 0.979 | 0.954 | 0.915 | 0.646 | 0.621 |
| NCI-H838 | 0.291 | 0.305 | 0.267 | 0.25 | 0.165 | 1.24 | – | 1.26 | 1.04 | 0.218 | 0.843 | – | 0.905 | 0.706 | 0.378 | 0.247 | 0.255 | 0.244 | 0.225 | 0.174 |
